Where “and” joins values, the source holds several entries; their conditions need not be identical. Equal values may be shown once. Read-outs that look alike come from different tables or passages of the source.
Columns and labels:
rats = experiment: Induction of ulcerative colitis by 5% DSS in drinking water; type: in vivo, rat
CYP2C11 = experiment: Immunoblot analysis of CYP2C11 in hepatic and intestinal microsomes of DSS rats; set-up: species or system rat
CYP3A1/2 = experiment: Immunoblot analysis of CYP3A1/2 in hepatic and intestinal microsomes of DSS rats; set-up: species or system rat
[1] = ref Bergan et al., 1981; cited from earlier work
4% human serum albumin = conditions: 1 to 100 μg/mL; ref Kim et al., 2020; cited from earlier work
in vitro = conditions: rat, intestinal microsomes, pH 7.4, CLint
[2] = hepatic microsomes
[3] = type: in vivo, rat; conditions: for Ae0-24 h: unchanged in urine for 24 h; for clearance: CL; for CL renal: CLR; for Vd: Vss
[4] = Rat plasma protein binding of tofacitinib by equilibrium dialysis; type: in vitro ADME; conditions: pH 7.4
P-gp = conditions: ref Hussar, 2014; cited from earlier work
[5] = oral 20 mg/kg, male Sprague-Dawley rats; ref Lee and Kim, 2019; cited from earlier work
[6] = oxidation and N-demethylation; ref Dowty et al., 2014; cited from earlier work
[7] = Tissue distribution of tofacitinib 30 min after intravenous administration; type: in vivo, rat; conditions: 30 min after intravenous 10 mg/kg
[8] = intestinal microsomes
in vivo = conditions: rat, plasma, po, 20 mg/kg; for CL renal: CLR
[9] = oral 20 mg/kg; for GI24 h: remaining in gastrointestinal tract at 24 h, 20 mg/kg; for Ae0-24 h: unchanged in urine for 24 h
[10] = rat, plasma, iv, 10 mg/kg, intravenous 10 mg/kg, CON rats
[11] = rat, plasma, iv, 10 mg/kg, intravenous 10 mg/kg, DSS rats

dextran sulfate sodium [DSS]
Decrease in colon length compared to CON rats (rats; 5% DSS (w/v) in drinking water for 10 days): 49.0% | Body weight decrease (rats; 5% DSS (w/v) in drinking water for 10 days, DSS rats): 1.14% | CLCR (rats; DSS rats): 2.68 mL/min/kg | Decrease of plasma albumin (rats; DSS rats versus CON rats): 15.8% | Increase of urea nitrogen (rats; DSS rats versus CON rats): 86.4% | Decrease in protein expression of CYP2C11 (CYP2C11; intestine of DSS rats): 78.5% | Decrease in protein expression of CYP2C11 (CYP2C11; liver of DSS rats): 43.3% | Decrease in protein expression of CYP3A1/2 (CYP3A1/2; intestine of DSS rats): 99.3% | Decrease in protein expression of CYP3A1/2 (CYP3A1/2; liver of DSS rats): 80.1%

Cc1ncc([N+](=O)[O-])n1CCO [metronidazole]
Increase of plasma concentration in patients with ulcerative colitis [1]: 50%

C[C@@H]1CCN(C(=O)CC#N)C[C@@H]1N(C)c1ncnc2[nH]ccc12 [tofacitinib, Tofacitinib]
Concentration dependence of binding to 4% human serum albumin (4% human serum albumin): independent of tofacitinib concentrations | microsomal CLint (in vitro; CON rats): 5.81 µL/min/mg | microsomal CLint (in vitro; DSS rats): 3.54 µL/min/mg | Decrease of CLint in DSS rats compared with CON rats [2]: 75.5% | Km, DSS versus CON rats [2]: comparable | Decrease of CL in DSS rats compared with CON rats ([3]; intravenous 10 mg/kg): 47.7% | Decrease of CLNR in DSS rats compared with CON rats ([3]; intravenous 10 mg/kg): 45.3% | Decrease of CLR in DSS rats compared with CON rats ([3]; intravenous 10 mg/kg): 77.6% | Decrease of Vss in DSS rats compared with CON rats ([3]; intravenous 10 mg/kg): 43.2% | Increase of AUC in DSS rats compared with CON rats ([3]; intravenous 10 mg/kg): 92.3% | CLNR ([3]; intravenous 10 mg/kg, CON rats): 34.0 ± 5.54 mL/min/kg | Ae0-24 h ([3]; intravenous 10 mg/kg, CON rats): 3.97 ± 2.93 % of dose | CLNR ([3]; intravenous 10 mg/kg, DSS rats): 18.6 ± 1.65 mL/min/kg | Ae0-24 h ([3]; intravenous 10 mg/kg, DSS rats): 2.73 ± 1.89 % of dose | CLR′ (CLR recalculated from free fraction in plasma) ([3]; intravenous, CON rats): 5.07 mL/min/kg | Contribution of CLR to CL ([3]; intravenous, CON rats): 8.27% | CLR′ (CLR recalculated from free fraction in plasma) ([3]; intravenous, DSS rats): 1.10 mL/min/kg | Contribution of CLR to CL ([3]; intravenous, DSS rats): 3.55% | GI24 h ([3]; intravenous, both CON and DSS rats): less than 0.484 % of the intravenous dose | half-life ([3]; rat, plasma, iv, 10 mg/kg): 31 ± 5.36 min | AUC ([3]; rat, plasma, iv, 10 mg/kg, intravenous 10 mg/kg, CON rats (n=7)): 4520 ng·h/mL | AUC ([3]; rat, plasma, iv, 10 mg/kg, intravenous 10 mg/kg, DSS rats (n=6)): 8680 ng·h/mL | clearance [3, 10]: 37.1 ± 5.68 mL/min/kg | clearance [3, 11]: 19.4 ± 2.26 mL/min/kg | CL renal [3, 10]: 3.07 ± 1.4 mL/min/kg | CL renal [3, 11]: 0.688 ± 0.149 mL/min/kg | MRT [3, 10]: 20.3 min | MRT [3, 11]: 31.9 min | Vd [3, 10]: 0.767 ± 0.286 L/kg | Vd [3, 11]: 0.436 ± 0.164 L/kg | fraction unbound at 24 h, 10 μg/mL ([4]; fresh plasma from CON and DSS rats): 0.606 to 0.626 | fraction unbound at 24 h, 10 μg/mL ([4]; fresh plasma from CON rats): 0.606 | fraction unbound at 24 h, 10 μg/mL ([4]; fresh plasma from DSS rats): 0.626 | P-gp substrate status (P-gp): substrate of P-gp | F [5]: 29.1% | Fraction metabolized by hepatic CYP3A4 and CYP2C19 [6]: approximately 70% | Concentrations in stomach, small intestine and mesentery, DSS versus CON rats [7]: significantly higher | Plasma concentration, DSS versus CON group [7]: significantly higher | Distribution in rat tissues ([7]; both groups): widely distributed | Km, DSS versus CON rats [8]: comparable | Decrease of CLint in DSS rats compared with CON rats ([8]; p=0.0679): 39.1% | AUC (in vivo; CON rats (n=6)): 2650 ng·h/mL | AUC (in vivo; DSS rats (n=6)): 4920 ng·h/mL | CL renal (in vivo; CON rats): 5.47 ± 4.05 mL/min/kg | CL renal (in vivo; DSS rats): 1.97 ± 1.14 mL/min/kg | Cmax (in vivo; CON rats): 2360 ± 587 ng/mL | Cmax (in vivo; DSS rats): 2460 ± 1050 ng/mL | Tmax (in vivo; CON rats): 19.2 min | Tmax (in vivo; DSS rats): 25 min | Decrease of CLR in DSS rats compared with CON rats [9]: 64.0% | Increase of AUC in DSS rats compared with CON rats [9]: 85.5% | GI24 h ([9]; CON rats): 0.124 % of dose and 0.124 ± 0.141 % of dose | Ae0-24 h ([9]; CON rats): 4.13 ± 2.71 % of dose | GI24 h ([9]; DSS rats): 1.10 % of dose and 1.10 ± 0.782 % of dose | Ae0-24 h ([9]; DSS rats): 2.40 ± 1.26 % of dose

From PMC9622310 (Biomolecules & Therapeutics, 2022)
